Results taken from PubChem BioAssay AID1329 (NMMLSC, 2008).
Calls of active or inactive are those of the source. How the calls were made is not given here.

Molecular target: Induced myeloid leukemia cell differentiation protein Mcl-1 (Homo sapiens) (UniProt Q07820)
Assay: Mcl-1/Bim interaction regulators – biochemical, bead-based flow cytometry, multiplexed, human, dose response (AID 1329)
Conditions: Bim peptide-Mcl-1 binding, MCF

Induced myeloid leukemia cell differentiation protein Mcl-1 (Homo sapiens), sequence (Q07820 whole entry, looked up): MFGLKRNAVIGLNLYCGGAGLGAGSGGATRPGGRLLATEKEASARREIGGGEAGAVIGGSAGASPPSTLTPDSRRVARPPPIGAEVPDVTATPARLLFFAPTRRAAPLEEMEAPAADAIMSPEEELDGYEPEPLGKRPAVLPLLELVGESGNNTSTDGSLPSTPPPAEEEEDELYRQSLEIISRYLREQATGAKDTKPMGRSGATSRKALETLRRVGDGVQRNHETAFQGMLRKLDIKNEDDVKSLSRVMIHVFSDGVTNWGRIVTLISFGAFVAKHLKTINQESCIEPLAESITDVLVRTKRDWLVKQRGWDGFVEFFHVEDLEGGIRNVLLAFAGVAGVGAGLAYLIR

Compound | percent span
C#CCOCCOCCOCCNc1nc(N2CCN(C(=O)[C@H]([C@@H](C)CC)n3cc([C@@H](N)CC(C)C)nn3)CC2)nc(N2CCN(C(=O)[C@H](Cc3cc4ccccc4[nH]3)n3cc([C@@H](N)Cc4ccc(O)cc4)nn3)CC2)n1 | inactive
O=C(C1=NN[C@@H]2C(=O)N(c3ccccc3C(F)(F)F)C(=O)[C@H]12)c1ccc2ccccc2n1 | inactive
CN(Cc1cccs1)C(=O)CCc1c[nH]c2ccccc12 | inactive
C1=CC2c3ccccc3NC(c3ccncc3)C2C1 (stereo unspecified) | inactive
COc1ccc(N2CCN(C(=O)c3cc(=O)[nH]c4ccccc34)CC2)cc1 | inactive
CCOC(=O)C1CCCN(c2ncnc3c2cnn3-c2cccc(C)c2)C1 (stereo unspecified) | inactive
O=C(CSc1nnc(Cc2ccccc2)o1)NCc1ccco1 | inactive
Cc1ccc(/C=C/C2=Cc3c(sc(NC(=O)CSc4n[nH]c(N)n4)c3C#N)C(C)(C)C2)o1 | inactive
CCOc1ncccc1C(=O)OC(C)C(=O)Nc1ccc(CC)cc1 (stereo unspecified) | inactive
COc1ccc(/C=C(/C(=O)c2cccs2)N2C=CC=CC2=C(C#N)C#N)cc1 | inactive
Cc1cc(-c2nn(-c3ccccc3)cc2/C=C2\SC(N)=NC2=O)ccc1OC(C)C | inactive
O=[N+]([O-])c1c(NCCO)cc(Sc2nc3ccccc3s2)c2nonc12 | inactive
CCC(=O)OCCNc1cc(Sc2nc3ccccc3[nH]2)c2nonc2c1[N+](=O)[O-] | inactive
C=CCSc1nc(N)c2c(C)c(C)sc2n1 | inactive
COC(=O)c1ccc(C)c(NC(=O)CCNC(=O)c2ccc([N+](=O)[O-])cc2)c1 | inactive
O=C(NCCc1ccccc1)c1ccc2nc(-c3ccco3)c(-c3ccco3)nc2c1 | inactive
Cc1noc(C)c1COc1ccc(C(=O)Nc2cccnc2)cc1 | inactive
Cc1cc(C)nc(/N=C(\N)N2CCc3ccccc32)n1 | inactive
O=C(C[n+]1ccc(-c2nnc3n2CCC3)cc1)c1ccc(Cl)cc1 | inactive
COc1ccc(/C=C/C(=O)Nc2sc(Cc3ccccc3)c(C)c2C(N)=O)cc1 | inactive
O=C(NC1=NCCS1)NC12CC3CC(CC(C3)C1)C2 | inactive
CN1N=C(C(=O)N2CCCC(C(=O)c3cccc(C(F)(F)F)c3)C2)CCC1=O (stereo unspecified) | inactive
COc1cccc2c1C(=O)C=C(C)C2=O | inactive
COc1ccc(S(=O)(=O)NCCOc2cccc3cccnc23)cc1OC | inactive
O=C(O)/C=C/C(=O)NNC(=O)c1ccc(Br)cc1 | inactive
Cc1ccc(/C=C2/NC(=O)N(Cc3ccccc3)C2=O)o1 | inactive

Compound | percent span
Cc1ccc(S(=O)(=O)NC(=O)COc2ccccc2C)cc1 | inactive
Cc1ccc(C)c(NC(=O)C(=O)NCc2ccccn2)c1 | inactive
CCNC(=O)N1c2ccc(OCC)cc2C(C)=CC1(C)C | inactive
Cc1ccc(-c2nc3c(c(=O)[nH]c(=O)n3Cc3ccccc3)n2C)o1 | inactive
COc1ccc(C(=O)Nc2ccc(NC(=O)c3cccs3)cc2)cc1Cl | inactive
CN(C)S(=O)(=O)N(CC(=O)Nc1ccccc1C(F)(F)F)c1ccccc1 | inactive
C=CCn1c(C)c(C(C)=O)c(N2CCOCC2)nc1=S | inactive
O=C(O)c1ccc(NC2=C/C(=N/S(=O)(=O)c3ccccc3)c3ccccc3C2=O)cc1 | inactive
O=C1N/C(=C/c2cccn2-c2ccccc2)C(=O)N1Cc1ccc(F)cc1 | inactive
Cn1cc(CN2C[C@]3(C)C[C@H]2CC(C)(C)C3)c(-c2ccc3c(c2)OCCO3)n1 | inactive
Nc1ccccc1N=c1ssnc1Cl | inactive
COc1ccc(C2CN(C)CC2C(=O)c2ccc(F)cc2)cc1Cl (stereo unspecified) | inactive
Cc1ccc(NC(=O)C/C(N)=N/OC(=O)c2ccccc2)cc1 | inactive
CN(C)CCNC(=O)C(=O)C1C(=O)Nc2ccccc21 (stereo unspecified) | inactive
CNC(=S)N(Cc1cccs1)Cc1cc2ccc(OC)cc2[nH]c1=O | inactive
COc1cc2[nH]c(=S)nc(NCCCOC(C)C)c2cc1OC | inactive
CCOC(=O)c1sc(N)c(C(=O)Nc2ccccc2OC)c1C | inactive
O=C(O)CC1S/C(=N/N=C/C=C/c2ccccc2[N+](=O)[O-])NC1=O (stereo unspecified) | inactive
COc1cc(N=c2ssnc2Cl)c(OC)cc1Cl | inactive
CCc1ccc(NC(=O)Cc2ccc(OC)cc2)cc1 | inactive
CCOC(=O)c1nc(Nc2ccc(Nc3ccccc3)cc2)c2ccccc2n1 | inactive
Fc1ccccc1-n1cc(-c2ccccc2)[nH]c1=S | inactive
CCN(CC)c1ccc(NC(=O)COc2ccccc2C)cc1S(=O)(=O)Nc1ccccc1OC | inactive
CCOc1ccc(C(=O)Nc2nnn(CC)n2)cc1 | inactive
CCN1CCN(c2cc(C)c3cc(NC(=S)N4CC(C)CC(C)C4)ccc3n2)CC1 (stereo unspecified) | inactive
